The assay has as its target T1, hDGAT1 (Homo sapiens, UniProt O75907).
T1 construct: made in house; host or cells: Sf9 insect cells (baculovirus); microsomal fraction
T1 sequence (O75907 1-488): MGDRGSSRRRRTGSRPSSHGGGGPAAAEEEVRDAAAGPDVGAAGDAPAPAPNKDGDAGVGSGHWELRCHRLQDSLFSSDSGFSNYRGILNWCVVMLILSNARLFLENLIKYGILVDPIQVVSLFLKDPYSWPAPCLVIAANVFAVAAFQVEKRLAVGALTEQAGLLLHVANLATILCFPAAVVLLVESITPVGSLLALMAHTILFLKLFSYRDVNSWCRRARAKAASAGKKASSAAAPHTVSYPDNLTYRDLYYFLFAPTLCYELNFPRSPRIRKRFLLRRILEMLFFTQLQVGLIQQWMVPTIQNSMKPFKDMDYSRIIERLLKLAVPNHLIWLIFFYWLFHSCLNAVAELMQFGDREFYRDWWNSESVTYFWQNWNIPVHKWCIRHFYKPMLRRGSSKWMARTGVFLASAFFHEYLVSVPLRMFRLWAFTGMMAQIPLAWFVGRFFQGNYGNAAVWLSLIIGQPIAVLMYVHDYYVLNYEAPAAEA
In words: In-vitro DGAT1 assay with hDGAT1 microsomes from Sf9 cells (14C oleoyl CoA, scintillation counting). The class given is biochemical. Conditions: for inhibition at 1 µM: read-out: Percentage inhibition of hDGAT1; for Percentage inhibition of hDGAT1: at 1 μM. A digest of the protocol: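 Microsomes from Sf9 cells infected with hDGAT1 baculovirus (MOI 5, harvested ~66-72 h) were incubated with [14C]oleoyl-CoA and 1,2-dioleoyl-sn-glycerol at 37 °C for 10 min, in duplicate. After alkaline ethanol stop, triglycerides were heptane-extracted and counted by liquid scintillation; percent inhibition was plotted against compound concentration (nM).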

Structures can show the parent of a compound that is named as a salt.

With `O=C(Nc1ccccc1)Nc1ccc(-c2cnc(C3CCC(C(=O)O)CC3)s2)cc1` (stereo not drawn) [Example 192, 4-(5-(4-(3-Phenylureido)phenyl)thiazol-2-yl)cyclohexanecarboxylic acid], the inhibition – broadly, the drop in the measured response relative to a control, in per cent – at 1 µM is above 50%. The same measure, in the same setting: the value for `CC(C)(C)c1ccc(C(=O)Nc2ccc(-c3cnc(C4CCC(C(=O)O)CC4)s3)cc2)cc1` (stereo not drawn) [Example 194, 4-(5-(4-(4-t-Butylbenzamido)phenyl)thiazol-2-yl)cyclohexanecarboxylic acid] was above 50%; that for `O=C(Nc1ccc(-c2cnc(C3CCC(C(=O)O)CC3)s2)cc1)c1ccccc1Cl` (stereo not drawn) [Example 196, 4-(5-(4-(2-Chlorobenzamido)phenyl)thiazol-2-yl)cyclohexanecarboxylic acid] was 20 to 50%; that for `O=C(Nc1ccc(-c2cnc(C3CCC(C(=O)O)CC3)s2)cc1)c1ncc(-c2ccccc2)o1` (stereo not drawn) [Example 198, 4-(5-(4-(5-Phenyloxazole-2-carboxamido)phenyl)thiazol-2-yl)cyclohexane carboxylic acid] was above 50%. Same read-out and setting: the value for `O=C(Nc1ccc(-c2cnc(C3CCC(C(=O)O)CC3)o2)cc1)Nc1ccccc1Cl` (stereo not drawn) [Example 204, 4-(5-(4-(3-(2-Chlorophenyl)ureido)phenyl)oxazol-2-yl)cyclohexanecarboxylic acid] was 20 to 50%; that for `O=C(Nc1ccccc1)Nc1ccc(-c2cnc(C3CCC(C(=O)O)CC3)o2)cc1` (stereo not drawn) [Example 206, 4-(5-(4-(3-Phenylureido)phenyl)oxazol-2-yl)cyclohexanecarboxylic acid] was 20 to 50%.

With `O=C(Nc1ccc(-c2cnc(C3CCC(C(=O)O)CC3)o2)cc1)Nc1cccc(Cl)c1` (stereo not drawn) [Example 208, 4-(5-(4-(3-(3-Chlorophenyl)ureido)phenyl)oxazol-2-yl)cyclohexanecarboxylic acid], the inhibition at 1 µM is above 50%.

In the case of `COc1ccccc1NC(=O)Nc1ccc(-c2cnc(C3CCC(C(=O)O)CC3)o2)cc1` (stereo not drawn) [Example 210, 4-(5-(4-(3-(2-Methoxyphenyl)ureido)phenyl)oxazol-2-yl)cyclohexane carboxylic acid], the inhibition at 1 µM lay in the range of 20 to 50%.

For the molecule `CC(C)(C)c1ccc(C(=O)Nc2ccc(-c3cnc(C4CCC(C(=O)O)CC4)o3)cc2)cc1` (stereo not drawn) [Example 214, 4-(5-(4-(4-Tert-butylbenzamido)phenyl)oxazol-2-yl)cyclohexanecarboxylic acid], the inhibition at 1 µM was 20 to 50%. As to `O=C(Nc1ccc(-c2noc([C@H]3CC[C@H](C(=O)O)CC3)n2)cc1)Nc1ccccc1Cl` [Example 219, (1r,4r)-4-(3-(4-(3-(2-Chlorophenyl)ureido)phenyl)-1,2,4-oxadiazol-5-yl)cyclo hexanecarboxylic acid], the “Percentage inhibition of hDGAT1” value is recorded as “+ (20-50% Inhibition)”.

Take `O=C(Nc1ccc(-c2noc([C@H]3CC[C@H](C(=O)O)CC3)n2)cc1)Nc1ccc(F)cc1F` [Example 221, (1r,4r)-4-(3-(4-(3-(2,4-Difluorophenyl)ureido)phenyl)-1,2,4-oxadiazol-5-yl)cyclohexanecarboxylic acid]: the “Percentage inhibition of hDGAT1” value is listed as “+ (20-50% Inhibition)”. Still for that read-out and setting: the value for `Cc1ccc(NC(=O)Nc2ccc(-c3noc([C@H]4CC[C@H](C(=O)O)CC4)n3)cc2)cc1` [Example 223, (1r,4r)-4-(3-(4-(3-p-Tolylureido)Phenyl)-1,2,4-oxadiazol-5-yl)cyclohexane carboxylic acid] was “+ (20-50% Inhibition)”.

Take `O=C(Nc1ccc(-c2noc([C@H]3CC[C@H](C(=O)O)CC3)n2)cc1)Nc1cccc(Cl)c1` [Example 225, (1r,4r)-4-(3-(4-(3-(3-Chlorophenyl)ureido)phenyl)-1,2,4-oxadiazol-5-yl)cyclo hexanecarboxylic acid]: the “Percentage inhibition of hDGAT1” value is on record as “++ (>50 % Inhibition)”.

As to `O=C(Nc1ccc(-c2noc([C@H]3CC[C@H](C(=O)O)CC3)n2)cc1)Nc1ccc(Cl)cc1Oc1ccccc1` [Example 227, (1r,4r)-4-(3-(4-(3-(4-Chloro-2-phenoxyphenyl)ureido)phenyl)-1,2,4-oxadiazol-5-yl)cyclohexanecarboxylic acid], the “Percentage inhibition of hDGAT1” value is on record as “++ (>50 % Inhibition)”.

With `CC(C)(C)c1ccc(C(=O)Nc2ccc(-c3noc([C@H]4CC[C@H](C(=O)O)CC4)n3)cc2)cc1` [Example 229, (1r,4r)-4-(3-(4-(4-tert-Butylbenzamido)phenyl)-1,2,4-oxadiazol-5-yl)cyclo hexane carboxylic acid], the “Percentage inhibition of hDGAT1” value was “+ (20-50% Inhibition)”. Same read-out and setting: with `O=C(Nc1ccc(-c2noc([C@H]3CC[C@H](C(=O)O)CC3)n2)cc1)c1ccc(-c2ccccc2)cc1` [Example 231, (1r,4r)-4-(3-(4-Biphenyl-4-ylcarboxamidophenyl)-1,2,4-oxadiazol-5-yl)cyclo hexanecarboxylic acid] the entry was “+ (20-50% Inhibition)”; with `O=C(Nc1ccc(-c2noc([C@H]3CC[C@H](C(=O)O)CC3)n2)cc1)c1ccc(OC(F)(F)F)cc1` [Example 233, (1r,4r)-4-(3-(4-(4-(Trifluoromethoxy)benzamido)phenyl)-1,2,4-oxadiazol-5-yl)cyclohexanecarboxylic acid], “+ (20-50% Inhibition)”. With `CC(C)(CCc1ncc(-c2ccc(NC(=O)Nc3cc(F)cc(F)c3)cc2)s1)C(=O)O` [Example 235, 4-(5-(4-(3-(3,5-Difluorophenyl)ureido)phenyl)thiazol-2-yl)-2,2-dimethyl butanoic acid], the inhibition at 1 µM is above 50%. As for `CC(C)(CCc1ncc(-c2ccc(NC(=O)Nc3cc(F)cc(F)c3)cc2)s1)C(=O)[O-].[Na+]` [Example 235A, Sodium salt of 4-(5-(4-(3-(3,5-difluorophenyl)ureido)phenyl)thiazol-2-yl)-2,2-dimethylbutanoate], the “Percentage inhibition of hDGAT1” value is on record as “++ (>50 % Inhibition)”. On to `CC(C)(CCc1ncc(-c2ccc(NC(=O)Nc3cc(F)c(F)cc3F)cc2)s1)C(=O)O` [Example 237, 2,2-Dimethyl-4-(5-(4-(3-(2,4,5-trifluorophenyl)ureido)phenyl)thiazol-2-yl)butanoic acid], for which the inhibition at 1 µM was above 50%. Take `CC(C)(CCc1ncc(-c2ccc(NC(=O)Nc3cc(F)c(F)cc3F)cc2)s1)C(=O)[O-].[Na+]` [Example 237A, Sodium salt of 2,2-dimethyl-4-(5-(4-(3-(2,4,5-trifluorophenyl)ureido)phenyl)thiazol-2-yl)butanoate]: the “Percentage inhibition of hDGAT1” value was “++ (>50 % Inhibition)”. Regarding `CC(C)(CCc1ncc(-c2ccc(NC(=O)N3CCCCC3)cc2)s1)C(=O)O` [Example 239, 2,2-Dimethyl-4-(5-(4-(piperidine-1-carboxamido)phenyl)thiazol-2-yl)butanoic acid], the inhibition at 1 µM was in the range of 20 to 50%. On the same count and under the same terms, the value for `CC(C)(CCc1ncc(-c2ccc(NC(=O)N3CCOCC3)cc2)s1)C(=O)O` [Example 241, 2,2-Dimethyl-4-(5-(4-(morpholine-4-carboxamido)phenyl)thiazol-2-yl)butanoic acid] was 20 to 50%; that for `CN1CCN(C(=O)Nc2ccc(-c3cnc(CCC(C)(C)C(=O)O)s3)cc2)CC1` [Example 243, 2,2-Dimethyl-4-(5-(4-(4-methylpiperazine-1-carboxamido)phenyl)thiazol-2-yl)butanoic acid hydrochloride] was 20 to 50%.
